What was measured:
[1] = system: isolated CNS of pharate 5th instar larvae; assay: Electrophysiology: extracellular motor bursts recorded in nerves of abdominal ganglia of the isolated intact or desheathed CNS; set-up: species or system Bombyx mori; conditions: for ecdysis burst pattern, CCAP or MIPs applied alone: CCAP alone n = 4, MIP-I only or MIP-I-VII mixture n = 5; for time to burst patterns characteristic for pre-ecdysis I and II in dorsal and ventral nerves: isolated nerve cords
Description: Specific roles of various neuropeptides produced by the ETHR neurons were determined using electrophysiology technique in the isolated intact or desheathed CNS. Sharp forceps were used to remove the neurolema on the dorsal or ventral side of selected ganglia under physiological saline (see above) and dorsal or ventral nerves of the abdominal ganglia (AG1-7) were attached to plastic suction electrodes. A mixture or individual neuropeptides were then applied in a 300 μl saline bath and induced extracellular motor bursts were recorded using differential AC amplifier 1700 (A-M Systems, Carlsborg, WA, USA) and Axoscope program (Axon Instruments, Union City, CA, USA). Synthetic peptides used in the assay are listed in Supplementary Table S2 online. A mixture of MIPs was adjusted according to its copy number in the precursor: MIP-I (five copies), MIP-II,V (two copies), MIP-III,IV,VI,VII (one copy each)[28].

ETHR-A (BNGR-A6-A) = assay: Aequorin-based calcium mobilization assay, ETHR-A transiently expressed in CHO-K1 cells; type: cell-based, Bombyx mori
Description: Pharmacological characterization of ETHR-A (BNGR-A6-A) and ETHR-B (BNGR-A6-B) receptors were carried out in the Chinese hamster ovary (CHO-K1) cells. For expression in CHO-K1 cells, the entire open reading frame for each ETHR was inserted into pcDNA3.1 ( +) vector (Invitrogen, Carlsbad, CA, USA) with a mammalian Kozak translation initiation sequence incorporated at 5´ end and confirmed by DNA sequencing prior to use. The primers used to clone BNGR-A6-A and BNGR-A6-B are listed in Supplementary Table S1 online. For the assay, each receptor was expressed together with the bioluminescent calcium-sensitive reporter aequorin and chimeric Gqs alpha subunit protein that couples receptor activation to the phospholipase C and intracellular Ca^2+ mobilization. […]
The procedures used for the receptor assays were described previously. […] Following cell application to a well, emitted luminescence corresponding to the ligand-induced intracellular Ca^2+ release was monitored in 0.5 s intervals for 20 s using the GloMax-Multi Detection System (Promega, Madison, WI, USA). […] All experiments were replicated three times and collected output data calculated and further analyzed in Excel (Microsoft, Redmond, WA, USA) and GraphPad Prism 6 software (GraphPad Software Inc.). The concentration-dependent response curves, as well as the corresponding EC50 values were calculated using the Prism software. […]

pharate larvae = assay: ETH injection into pharate larvae, ecdysis behavior; type: in vivo, Bombyx mori; conditions: pharate larvae injected with ETH at 8–15 h prior to ecdysis; fail to shed the old cuticle
Description: Under normal conditions, the ecdysis behavior lasts for ∼10 min and terminates immediately after the old cuticle is completely shed from the last abdominal segment. However, pharate larvae injected with ETH at 8–15 h prior to ecdysis fail to shed the old cuticle and show strong ecdysis contractions for 1–2 h. […] To determine a site of sensory input that terminates the ecdysis behavior, we peeled off a narrow ring of the old cuticle on abdominal segments 1, 3, 5 or 6 of late pharate 5th instar larvae 1–3 h prior to ecdysis. These larvae invariably initiated normal pre-ecdysis behaviors at the expected time and after ∼1 h switched to peristaltic waves of ecdysis contractions. […] In spite of presence of the old cuticle on the head, thorax and anterior abdomen, strong ecdysis contractions ceased immediately after the posterior cuticle was shed from the last abdominal segment in all larvae (n = 14).

For AWQDLNSAWa [MIP-I], the “ecdysis burst pattern, CCAP or MIPs applied alone” value ([1]; desheathed CNS) was “weak prolonged synchronous bursts or no rhythmic pattern”.
In the case of “GQSNNNRGRVLRCFFNAVTCF-OH [AST-CC, allatostatin CC, allatostatin CC of Bombyx mori]”, the “time to onset of ecdysis bursts” value ([1]; desheathed CNS dissected 2–6 h prior to ecdysis, 0,3–1 μM, n = 14) is reported as 5 to 12 min and the “response (ecdysis motor pattern) of earlier pharate or feeding stages” value ([1]; desheathed CNS, 0,3–1 μM, n = 9) is reported as “irresponsive”.
For “NADLINSLLALPKDMNDAa [PDF, pigment dispersing factor, pigment dispersing factor of Bombyx mori]”, the “time to onset of pre-ecdysis II bursts (asynchronous motoneuron activity) in ventral nerves of AG2-7” value ([1]; desheathed CNS, 0.3–1 μM, n = 8) was 3 to 5 min.
“PFCNAFTGCa [CCAP, crustacean cardioactive peptide]” was tested, and the “ecdysis burst pattern, CCAP or MIPs applied alone” value ([1]; desheathed CNS) was “less effective”.
In the case of “SFIKPN.NVPRVa [PETH, pre-ecdysis triggering hormone, pre-ecdysis triggering hormone from B. mori, synthetic peptide]”, the EC50 (ETHR-A (BNGR-A6-A); CHO-K1 cells co-expressing aequorin and chimeric Gqs alpha subunit, luminescence as % of maximum peak, mean of n = 3, read-out: EC50, BomETHR-A) is reported as 9.43 nM, the “fold lower sensitivity of ETHR-A to PETH than to ETH” value (ETHR-A (BNGR-A6-A); from concentration-response curves in CHO cells) is reported as ~ 20 fold and the “time to burst patterns characteristic for pre-ecdysis I and II in dorsal and ventral nerves” value ([1]; 0.3–1 μM, n = 14) is reported as 5 to 7 min.
With “SNEAISPFDQGMMGYVIKTNKNIPRMa [ETH, ecdysis triggering hormone, ecdysis triggering hormone from B. mori, synthetic peptide]” the “time to initiation of clear ecdysis bursts after ETH” value ([1]; desheathed CNS activated by ETH, n = 10) was 27 to 35 min, the “duration of pre-ecdysis before switch to ecdysis motor patterns (ecdysis activation)” value ([1]; isolated CNS of pharate larvae treated with ETH, dorsal nerves AG4-7) was ~ 40 min and the “time to burst patterns characteristic for pre-ecdysis I and II in dorsal and ventral nerves” value ([1]; 0.3–1 μM, n = 14) was 5 to 7 min. The “duration of strong ecdysis contractions” value (pharate larvae) was 1 to 2 h.
